Data taken from patent US20250099464A1, “PHARMACEUTICAL COMPOSITIONS” (ViiV Healthcare UK (No.3) Limited, priority 2023, published 2025).

Test: Cabotegravir population pharmacokinetic (PopPK) model
Design: species or system human
Procedure: A cabotegravir population pharmacokinetic (PopPK) model was built based on PK data following cabotegravir (CAB) 200 mg/mL intramuscular (IM) injections collected in 16 historical studies (Population pharmacokinetics of cabotegravir following administration of oral tablet and long-acting intramuscular injection in adult HIV-1-infected and uninfected subjects. Han K, Baker M, Lovern M, Paul P, Xiong Y, Patel P, Moore K P, Seal C S, Cutrell A G, D'Amico R D, Benn P D, Landovitz R J, Marzinke M A, Spreen W R, Ford S L. Br J Clin Pharmacol. 2022 October; 88(10):4607-4622. doi: 10.1111/bcp.15439. Epub 2022 Jul. 4. PMID: 35695476) and updated based on PK data from 19 studies: LAI116585, LAI117010, LAI117011, LAI117020, 201741, 201479, 201480, 205696, LAI116482 (LATTE), LAI115428, LAI116815, 200056 (LATTE-2), 201120 (ECLAIR), 201103 (HPTN077), 201584 (FLAIR), 201585 (ATLAS), 207966 (ATLAS-2M), 201738 (HPTN 083) and 201739 (HPTN 084). A total of 34,850 CAB plasma concentrations collected at various time points from 2,694 participants were used to build this PopPK model. […] The simulations were performed as follows: covariates including body weight, BMI and smoking status were resampled 5000 times from the distribution of these covariates for males and females, generating 5000 virtual male subjects and 5000 virtual female subjects. Individual PK parameters of the virtual subjects were calculated using subject-specific covariates and using the population parameter estimates, subject-specific NONMEM inter-individual errors (ETAs) sampled from the distributions that are decided by the estimated variance-covariate matrix of between-subject variability from the final population PK model. Concentration-versus-time profiles of the virtual subjects were calculated using the individual PK parameters. Residual variability (EPS) was included in the simulation. Median and 10th and 90th percentiles (80% prediction interval) of the simulated concentration-versus-time profiles of the virtual males and females were calculated. […]

SMILES: C[C@H]1CO[C@@H]2Cn3cc(C(=O)NCc4ccc(F)cc4F)c(=O)c(O)c3C(=O)N12 [cabotegravir, (3S,11aR)—N-((2,4-difluorophenyl)methyl)-6-hydroxy-3-methyl-5,7-dioxo-2,3,5,11,11a-hexahydro(1,3)oxazolo(3,2-a)pyrido(1,2-d)pyrazine-8-carboxamide]
- KA2 in relation to BMI: decreased with increasing BMI
- KA2 in relation to needle length: lower with longer needle length
- Long-acting intramuscular gluteal absorption rate constant (KA2), lower in people assigned female at birth than people assigned male at birth (CAB 200 mg/mL IM injections): 46.5%
